Laboratory results taken from paper PMC6825270 (Proceedings of the National Academy of Sciences of the …, 2019).

Columns and labels:
[1] = biological target: mouse MOPr (mMOPr) (Mus musculus, UniProt P42866); assay: GGIRK activation in AtT20 cells expressing mMOPr, perforated patch; format: cell-based
[2] = biological target: MOPr (Mus musculus, UniProt P42866); format: cell-based; details: GRK2-positive cells, saturating concentrations
[3] = biological target: human MOPr (hMOPr) (Homo sapiens, UniProt P35372); assay: Inhibition of forskolin-stimulated cAMP formation in hMOPr HEK cells; format: cell-based; details: 10 µM
Chain of human MOPr (hMOPr) (P35372 whole entry): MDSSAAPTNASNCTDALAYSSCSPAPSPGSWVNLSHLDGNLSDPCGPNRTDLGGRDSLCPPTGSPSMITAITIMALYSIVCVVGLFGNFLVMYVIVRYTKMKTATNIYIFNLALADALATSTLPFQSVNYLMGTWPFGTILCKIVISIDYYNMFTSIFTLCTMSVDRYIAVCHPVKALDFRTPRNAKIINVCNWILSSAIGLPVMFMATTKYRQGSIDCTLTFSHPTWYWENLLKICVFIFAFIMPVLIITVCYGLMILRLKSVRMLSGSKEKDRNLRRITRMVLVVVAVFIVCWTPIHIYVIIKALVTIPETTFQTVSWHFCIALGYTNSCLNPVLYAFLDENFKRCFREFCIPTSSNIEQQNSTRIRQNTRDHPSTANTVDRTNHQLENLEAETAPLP

[4] = biological target: human μ-opioid receptor (hMOPr) (human) (UniProt P35372); assay: radioligand binding
[5] = biological target: human δ-opioid receptor (hDOPr) (human) (UniProt P41143); assay: radioligand binding
[6] = biological target: human κ-opioid receptor (hKOPr) (human) (UniProt P41145); assay: radioligand binding

Molecule: COc1ccsc1CNCC[C@@]1(c2ccccn2)CCOC2(CCCC2)C1 [oliceridine]
- GGIRK activation in AtT20 cells, in words [1]: significantly less efficaciously than either morphine or bilorphin
- MOPr internalization with overexpressed GRK2-YFP and β-arrestin 2-HA, in words [2]: clear internalization signals

Molecule: H-FVvf-NH2 [1g]
- Inhibition of cAMP formation / MOPr activity, in words [3]: generally inactive

Molecule: H-FVvf-OH [1c]
- Inhibition of cAMP formation / MOPr activity, in words [3]: generally inactive

Molecule: H-fVvF-NH2 [1f]
- Inhibition of cAMP formation / MOPr activity, in words [3]: generally inactive

Molecule: H-fVvF-OH [1b]
- Inhibition of cAMP formation / MOPr activity, in words [3]: generally inactive

Molecule: H-fvVF-OH [1d]
- Inhibition of cAMP formation / MOPr activity, in words [3]: generally inactive

Molecule: bilaid A (FvVf-OH) (peptide)
- Ki [4]: 3100 nM

Molecule: bilaid C (YvVf-OH) (peptide)
- Ki [4]: 210 nM

Molecule: bilorphin ([Dmt]vVf-NH2) (peptide)
- Ki [5]: 190 nM
- Ki [6]: 770 nM

B1: C-terminally amidated bilaid A (1e) (peptide)
peptide: FVVF
modifications: D-Val at 2, D-Phe at 4; C-terminal amide
- Ki [4]: 750 nM
